Here are results for 3 compounds from patent publication US20090023683A1, “COMPLEXES COMPRISING ZOLEDRONIC ACID AND CYCLODEXTRINS” (priority 2007, published 2009).

The nature of data set [1]: Water solubility at 25° C. of zoledronic acid-HPβCD complexes and zoledronic acid monohydrate. The class given is physicochemical. From the text: Solubility data of Examples 1-5 and Zoledronic Acid Monohydrate
The conditions of data set [2]: cited from earlier work.
For data set [3] the following is noted: cited from earlier work. This is another data set of the same source.

One may read the solubility as the dissolved amount per volume that the medium holds. The low end stands for little dissolved substance, the high end for much dissolved substance. For the compound `O=P(O)(O)C(O)(Cn1ccnc1)P(=O)(O)O` [Zoledronic acid monohydrate, zoledronic acid monohydrate], the solubility in data set [1] was less than 7000 µg/mL.
For `O=P(O)(O)C(O)(Cn1ccnc1)P(=O)(O)O` [zoledronic acid], the “water solubility (in words)” value in data set [2] is given as “sparingly water-soluble”.
With hydroxypropyl-β-cyclodextrin [HPβCD], in data set [2] (room temperature), the solubility in water result was “greater than 500 mg/ml”. In addition, in data set [3], the “adverse effects in human studies” value is recorded as “no adverse effects are observed”.
